Reference: US10160755B2 (Plexxikon Inc., priority 2015, dated 2018)

Columns and labels:
FLT3-ITD = molecular target: T1, FLT3-ITD (Homo sapiens, UniProt P36888); assay: FLT3-ITD biochemical kinase assay (AlphaScreen)
T1 construct: FLT3-ITD; Invitrogen #PV6190
T1 sequence (P36888 1-993): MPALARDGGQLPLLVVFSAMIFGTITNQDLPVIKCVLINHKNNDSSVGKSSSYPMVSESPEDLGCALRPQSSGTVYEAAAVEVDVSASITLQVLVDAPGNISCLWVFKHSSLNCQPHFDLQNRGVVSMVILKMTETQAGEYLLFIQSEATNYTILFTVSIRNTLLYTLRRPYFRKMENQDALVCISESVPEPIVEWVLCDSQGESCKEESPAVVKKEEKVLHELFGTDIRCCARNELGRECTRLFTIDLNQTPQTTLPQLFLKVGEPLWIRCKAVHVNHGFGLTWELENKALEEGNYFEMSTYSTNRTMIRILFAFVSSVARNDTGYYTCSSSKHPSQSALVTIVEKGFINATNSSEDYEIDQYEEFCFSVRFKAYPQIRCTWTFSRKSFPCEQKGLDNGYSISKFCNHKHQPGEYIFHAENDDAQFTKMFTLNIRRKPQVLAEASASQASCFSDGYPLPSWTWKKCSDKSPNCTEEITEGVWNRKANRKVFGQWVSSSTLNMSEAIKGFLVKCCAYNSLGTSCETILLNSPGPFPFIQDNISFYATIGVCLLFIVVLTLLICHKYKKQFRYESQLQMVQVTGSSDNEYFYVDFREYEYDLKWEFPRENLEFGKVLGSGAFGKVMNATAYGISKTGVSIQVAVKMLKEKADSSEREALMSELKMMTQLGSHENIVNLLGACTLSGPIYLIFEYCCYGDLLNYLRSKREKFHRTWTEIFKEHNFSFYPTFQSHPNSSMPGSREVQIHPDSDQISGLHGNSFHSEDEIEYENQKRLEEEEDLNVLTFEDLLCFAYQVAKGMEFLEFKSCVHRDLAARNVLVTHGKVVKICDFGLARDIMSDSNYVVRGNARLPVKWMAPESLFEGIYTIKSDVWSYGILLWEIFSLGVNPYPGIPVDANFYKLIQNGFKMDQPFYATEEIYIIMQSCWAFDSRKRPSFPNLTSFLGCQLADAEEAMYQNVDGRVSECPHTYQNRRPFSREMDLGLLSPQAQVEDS
Procedure, shortened: (§1)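 Recombinant enzyme phosphorylated biotin-poly(Glu4-Tyr) peptide (30 nM final); ATP final 10 μM for FLT3-D835Y, 100 μM for FLT3-ITD. AlphaScreen read-out: streptavidin donor and anti-phosphotyrosine (PY20) acceptor beads, 20 and 60 min at room temperature; inhibition seen as drop in 580 nm proximity signal; IC50 determined.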

FLT3-D835Y = molecular target: T2, FLT3-D835Y (Homo sapiens, UniProt P36888, D835Y); assay: FLT3-D835Y biochemical kinase assay (AlphaScreen)
T2 construct: purchased Invitrogen PV3967
T2 sequence (P36888 27-993 D835Y): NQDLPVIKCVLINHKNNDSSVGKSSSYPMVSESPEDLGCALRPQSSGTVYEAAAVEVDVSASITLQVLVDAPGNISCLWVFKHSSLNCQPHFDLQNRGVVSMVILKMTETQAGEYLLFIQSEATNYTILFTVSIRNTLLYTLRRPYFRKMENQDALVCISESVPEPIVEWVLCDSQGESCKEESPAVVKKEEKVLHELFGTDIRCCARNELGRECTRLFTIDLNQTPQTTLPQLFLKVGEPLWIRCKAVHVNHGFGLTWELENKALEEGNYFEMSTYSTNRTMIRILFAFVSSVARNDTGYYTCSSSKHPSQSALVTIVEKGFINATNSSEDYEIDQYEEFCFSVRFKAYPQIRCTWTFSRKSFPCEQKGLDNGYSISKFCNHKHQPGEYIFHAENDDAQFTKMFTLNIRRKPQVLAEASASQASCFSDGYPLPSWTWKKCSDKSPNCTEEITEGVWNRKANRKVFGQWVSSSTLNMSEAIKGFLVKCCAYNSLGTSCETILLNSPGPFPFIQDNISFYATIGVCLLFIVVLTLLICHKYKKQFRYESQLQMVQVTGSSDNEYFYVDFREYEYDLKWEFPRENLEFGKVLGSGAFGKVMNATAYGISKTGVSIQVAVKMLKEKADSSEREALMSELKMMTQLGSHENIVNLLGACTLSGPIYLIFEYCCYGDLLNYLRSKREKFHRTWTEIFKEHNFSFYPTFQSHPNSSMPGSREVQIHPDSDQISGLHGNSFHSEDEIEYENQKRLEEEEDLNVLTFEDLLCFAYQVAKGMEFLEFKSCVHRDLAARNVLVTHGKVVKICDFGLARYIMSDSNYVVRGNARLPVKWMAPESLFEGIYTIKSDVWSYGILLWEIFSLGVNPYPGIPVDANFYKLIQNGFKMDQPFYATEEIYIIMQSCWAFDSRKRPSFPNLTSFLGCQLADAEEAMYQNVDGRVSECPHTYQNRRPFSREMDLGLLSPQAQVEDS
Procedure, shortened: as §1

Row | IC50 (FLT3-ITD) [µM] | IC50 (FLT3-D835Y) [µM] | SMILES
1 | 0.0001 to 1 | 0.0001 to 1 | COc1cnc2[nH]cc(-c3ccc4ncn(C5CCC5)c4c3)c2c1 [P-061, 1-cyclobutyl-6-(5-methoxy-1H-pyrrolo[2,3-b]pyridin-3-yl)benzimidazole]
2 |  | 0.0001 to 1 | CC(C)(C)n1cnc2ccc(-c3c[nH]c4ncc(-c5ccnc(C#N)c5)nc34)cc21 [P-301, 4-[7-(3-tert-butylbenzimidazol-5-yl)-5H-pyrrolo[2,3-b]pyrazin-2-yl]pyridine-2-carbonitrile]
3 | 0.0001 to 1 | 0.0001 to 1 | CC(C)(C)n1cnc2ccc(-c3c[nH]c4ncc(-c5ccnc(N6CCCS6(=O)=O)c5)nc34)cc21 [P-294, 2-[4-[7-(3-tert-butylbenzimidazol-5-yl)-5H-pyrrolo[2,3-b]pyrazin-2-yl]-2-pyridyl]-1,2-thiazolidine 1,1-dioxide]
4 | 0.0001 to 1 | 0.0001 to 1 | CC(C)(C)n1cnc2ccc(-c3c[nH]c4nnc(Cl)cc34)cc21 [P-314, 5-(3-tert-butylbenzimidazol-5-yl)-3-chloro-7H-pyrrolo[2,3-c]pyridazine]
5 | 0.0001 to 1 | 0.0001 to 1 | Cc1ncc(C#Cc2cnc3[nH]cc(-c4ccc5ncn(C(C)(C)C)c5c4)c3n2)cn1 [P-284, 7-(3-tert-butylbenzimidazol-5-yl)-2-[2-(2-methylpyrimidin-5-yl)ethynyl]-5H-pyrrolo[2,3-b]pyrazine]
6 | 0.0001 to 1 | 0.0001 to 1 | CN1CCN(c2cccc(-c3cnc4[nH]cc(-c5ccc6ncn(C7CCCNC7)c6c5)c4n3)c2)CC1 (stereo not shown) [P-332, 2-[3-(4-methylpiperazin-1-yl)phenyl]-7-[3-(3-piperidyl)benzimidazol-5-yl]-5H-pyrrolo[2,3-b]pyrazine]
7 | 0.0001 to 1 | 0.0001 to 1 | COc1cc(-c2cc3c(-c4ccc5ncn(C(C)(C)C)c5c4)c[nH]c3nn2)ccn1 [P-315, 5-(3-tert-butylbenzimidazol-5-yl)-3-(2-methoxy-4-pyridyl)-7H-pyrrolo[2,3-c]pyridazine]
8 | 0.0001 to 1 | 0.0001 to 1 | CC(C)(C)n1cnc2ccc(-c3c[nH]c4ncc(-c5ccc(N6CCC(F)(F)CC6)nc5)nc34)cc21 [P-356, 7-(3-tert-butylbenzimidazol-5-yl)-2-[6-(4,4-difluoro-1-piperidyl)-3-pyridyl]-5H-pyrrolo[2,3-b]pyrazine]
9 |  | 0.0001 to 1 | COc1cnc2[nH]cc(-c3ccc4ncn(C(C)(C)C)c4c3)c2c1 [P-074, 1-tert-butyl-6-(5-methoxy-1H-pyrrolo[2,3-b]pyridin-3-yl)benzimidazole]
10 | 0.0001 to 1 | 0.0001 to 1 | CC(C)(C)n1cnc2ccc(-c3c[nH]c4ncc(-c5ccnc(C#N)c5)cc34)cc21 [P-291, 4-[3-(3-tert-butylbenzimidazol-5-yl)-1H-pyrrolo[2,3-b]pyridin-5-yl]pyridine-2-carbonitrile]
11 | 0.0001 to 1 | 0.0001 to 1 | CC(C)(C)n1cnc2ccc(-c3c[nH]c4ncc(-c5cccc(N6CCCS6(=O)=O)c5)cc34)cc21 [P-278, 2-[3-[3-(3-tert-butylbenzimidazol-5-yl)-1H-pyrrolo[2,3-b]pyridin-5-yl]phenyl]-1,2-thiazolidine 1,1-dioxide]
12 | 0.0001 to 1 | 0.0001 to 1 | COc1ncc(-c2cnc3[nH]cc(-c4ccc5ncn(C6CCCNC6)c5c4)c3c2)cn1 (stereo not shown) [P-276, 5-(2-methoxypyrimidin-5-yl)-3-[3-(3-piperidyl)benzimidazol-5-yl]-1H-pyrrolo[2,3-b]pyridine]
13 |  | 0.0001 to 1 | COc1cnc2[nH]cc(-c3ccc4ncn(-c5ccccc5)c4c3)c2c1 [P-068, 5-methoxy-3-(3-phenylbenzimidazol-5-yl)-1H-pyrrolo[2,3-b]pyridine]
14 | 0.0001 to 1 |  | COc1ncc(-c2cnc3[nH]cc(-c4ccc5ncn(C(C)(C)C)c5c4)c3n2)cc1C#N [P-405, 5-[7-(3-tert-butylbenzimidazol-5-yl)-5H-pyrrolo[2,3-b]pyrazin-2-yl]-2-methoxy-pyridine-3-carbonitrile]
15 | 1 to 10 |  | CC(C)(C)n1cnc2ccc(-c3c[nH]c4ncc(-c5cnc(F)c(F)c5)nc34)cc21 [P-390, 7-(3-tert-butylbenzimidazol-5-yl)-2-(5,6-difluoro-3-pyridyl)-5H-pyrrolo[2,3-b]pyrazine]
